For orientation: IC50 means the point on the concentration scale where inhibition reaches its midpoint.

Experimental findings from patent US20200405696A1, “INHIBITORS OF INDOLEAMINE 2,3-DIOXYGENASE AND/OR TRYPTOPHAN 2,3-DIOXYGENASE” (IDORSIA PHARMACEUTICALS LTD, priority 2018, published 2020) are described below.

Assay [1] has as its target T1, Recombinant full-length human IDO1 (Homo sapiens, UniProt P14902).
T1 construct: Recombinant full-length human IDO1 with a N-terminal hexahistidine tag; hexahistidine (His6) (N); made in house; host or cells: E. coli
The assay can be described thus: IDO1 enzymatic assay (NFK quantified by LCMS). The class given is biochemical. To be noted: 2 nM enzyme, 5 μM L-tryptophan, pH6.5, 30 minutes pre-incubation at RT; mean values when measured multiple times; read-out: hIDO activity (IC50 in nM). On the procedure: 1) Testing Compounds for IDO Inhibitory Activity in an IDO1 Enzymatic Assay:
Recombinant full-length human IDO1 with a N-terminal hexahistidine tag expressed in E. coli and purified to homogeneity is incubated at a final concentration of 2 nM in assay buffer consisting of 37.5 mM phosphate buffer at pH6.5 supplemented with 10 mM ascorbic acid, 0.45 μM methylene blue, 50U/ml catalase, 0.01% BSA, and 0.01% Tween 20 (protocol modified from Seegers et al, JBS 2014). Example compounds are serially diluted in DMSO, further diluted in phosphate buffer, and added to the enzyme at final concentrations ranging from 10 μM to 0.5 nM. The final DMSO concentration is 0.6%. Following a pre-incubation of 30 minutes at RT, the reaction is started by the addition of L-tryptophan at a final concentration of 5 μM in assay buffer. After 30 minutes of incubation at RT, 3 μL of the 20 μl reaction mixture are transferred to a 384 deep well plate containing 25 μL of deionized water. 100 μl of 200 nM L-Tryptophan-(indole-d5) in cold 100% methanol are added followed by a 10 minutes centrifugation at 3220×g at 4° C. An additional 75 μL of deionized water are then added followed by a 10 minutes centrifugation at 3220×g at 4° C. The product of the reaction N′-Formylkynurenine (NFK) is quantified by LCMS and normalized to the L-Tryptophan-(indole-d5) signal. Samples with 0.6% DMSO (0% effect) and a TDO/IDO inhibitor (100% effect) are used as control samples to set the parameters for the non-linear regression necessary for the determination of the half-maximal inhibitory concentration (IC50) for each compound. For each compound concentration the percentage of activity compared to 0% and 100% effect is calculated as average±STDEV (each concentration measured in duplicate). IC50 values and curves are generated with XLfit software (IDBS) using Dose-Response One Site model 203 (four parameter logistic curve model). The calculated IC50 values may fluctuate depending on the daily assay performance. Fluctuations of this kind are known to those skilled in the art. When compounds are measured multiple times, mean values are given.

Assay [2] addresses T2, Recombinant human TDO comprising amino acids 19-407 (Homo sapiens, UniProt P48775).
T2 construct: Recombinant human TDO comprising amino acids 19-407 with a N-terminal hexahistidine tag; hexahistidine (His6) (N); made in house; host or cells: E. coli
Put plainly: TDO2 enzymatic assay (NFK quantified by LCMS). The format is biochemical. To be noted: 15 nM enzyme, 200 μM L-tryptophan, pH7, 30 minutes pre-incubation at RT; mean values when measured multiple times; read-out: hTDO activity (IC50 in nM). The protocol: 2) Testing Compounds for TDO Inhibitory Activity in a TDO2 Enzymatic Assay:
Recombinant human TDO comprising amino acids 19-407 with a N-terminal hexahistidine tag expressed in E. coli and purified to homogeneity is incubated at a final concentration of 15 nM in assay buffer consisting of 75 mM phosphate buffer at pH7 supplemented with 100 μM ascorbic acid, 50U/ml Catalase, 0.01% BSA, and 0.01% Tween 20 (protocol modified from Seegers et al, JBS 2014). Example compounds are serially diluted in DMSO, further diluted in phosphate buffer, and added to the reaction mixture at final concentrations ranging from 10 μM to 0.5 nM. The final DMSO concentration is 0.6%. Following a pre-incubation of 30 minutes at RT, the reaction is started by the addition of L-tryptophan at a final concentration of 200 μM in assay buffer. After 30 minutes of incubation at RT, 3 μL of the reaction mixture are transferred to a 384 deep well plate containing 25 μL of deionized water. 100 μl of 200 nM L-Tryptophan-(indole-d5) in cold 100% methanol are added followed by a 10 minutes centrifugation at 3220×g at 4° C. An additional 75 μL of deionized water are then added followed by a 10 minutes centrifugation at 3220×g at 4° C. The product of the reaction N′-Formylkynurenine (NFK) is quantified by LCMS and normalized to the L-Tryptophan-(indole-d5) signal. Samples with 0.6% DMSO (0% effect) and a TDO/IDO inhibitor (100% effect) are used as control samples to set the parameters for the non-linear regression necessary for the determination of the half-maximal inhibitory concentration (IC50) for each compound. For each compound concentration the percentage of activity compared to 0% and 100% effect is calculated as average±STDEV (each concentration measured in duplicate). IC50 values and curves are generated with XLfit software (IDBS) using Dose-Response One Site model 203 (four parameter logistic curve model). The calculated IC50 values may fluctuate depending on the daily assay performance. Fluctuations of this kind are known to those skilled in the art. When compounds are measured multiple times, mean values are given.

T1 sequence (P14902 whole entry): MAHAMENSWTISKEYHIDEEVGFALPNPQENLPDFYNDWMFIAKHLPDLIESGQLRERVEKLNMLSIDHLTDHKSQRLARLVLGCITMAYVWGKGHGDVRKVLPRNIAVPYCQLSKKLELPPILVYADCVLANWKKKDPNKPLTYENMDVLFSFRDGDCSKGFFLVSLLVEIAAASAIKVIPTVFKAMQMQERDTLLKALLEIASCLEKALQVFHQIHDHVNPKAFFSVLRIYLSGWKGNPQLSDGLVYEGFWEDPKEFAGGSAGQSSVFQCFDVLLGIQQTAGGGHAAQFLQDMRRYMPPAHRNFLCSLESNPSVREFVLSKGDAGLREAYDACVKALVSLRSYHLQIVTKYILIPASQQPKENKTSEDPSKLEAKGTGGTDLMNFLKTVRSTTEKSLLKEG
T2 sequence (P48775 19-406 limits assumed): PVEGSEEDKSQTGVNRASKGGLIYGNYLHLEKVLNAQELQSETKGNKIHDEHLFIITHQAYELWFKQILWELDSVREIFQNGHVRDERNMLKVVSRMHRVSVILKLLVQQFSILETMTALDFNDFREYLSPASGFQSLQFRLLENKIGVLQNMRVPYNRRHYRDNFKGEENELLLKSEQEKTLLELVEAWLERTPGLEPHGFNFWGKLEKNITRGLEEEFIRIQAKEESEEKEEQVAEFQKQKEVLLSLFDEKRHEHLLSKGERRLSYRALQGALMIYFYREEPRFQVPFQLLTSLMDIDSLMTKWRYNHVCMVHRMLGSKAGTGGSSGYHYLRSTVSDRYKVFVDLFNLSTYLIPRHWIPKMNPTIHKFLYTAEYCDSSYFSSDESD

For the molecule `CC(C)(CO)COc1ccc(-n2cc(C(O)c3c(C4CC4)sc4cncn34)nn2)cc1` (racemic) [Example 141, rac-3-(4-{4-[(2-Cyclopropyl-imidazo[5,1-b]thiazol-3-yl)-hydroxy-methyl]-[1,2,3]triazol-1-yl}-phenoxy)-2,2-dimethyl-propan-1-ol], the values for the IC50 in assay [1] and in assay [2] were 27.2 nM and more than 10200 nM, respectively.
Taken in the same sequence, the figures for `OC(c1cn(-c2ccccc2)cn1)c1c(C2CC2)sc2cncn12` (racemic) [Example 178, rac-(2-Cyclopropyl-imidazo[5,1-b]thiazol-3-yl)-(1-phenyl-1H-imidazol-4-yl)-methanol] were 515 nM and more than 10200 nM.
On the same counts, the results for `COc1cc(F)c(-n2cc(C(O)c3c(C4CC4)sc4cncn34)nn2)cc1F` (racemic) [Example 318, rac-(2-Cyclopropyl-imidazo[5,1-b]thiazol-3-yl)-[1-(2,5-difluoro-4-methoxy-phenyl)-1H-[1,2,3]triazol-4-yl]-methanol] are 2.99 nM and more than 10200 nM.
On the same counts, the results for `Cc1sc2cncn2c1C(O)c1cn(-c2cncc3ccccc23)nn1` (racemic) [Example 61, rac-(1-Isoquinolin-4-yl-1H-[1,2,3]triazol-4-yl)-(2-methyl-imidazo[5,1-b]thiazol-3-yl)-methanol] are 493 nM and more than 10200 nM.
As to `CCOc1ccc(-n2cc(C(O)c3c(C4CC4)sc4cncn34)nn2)cc1` (racemic) [Example 32, rac-(2-Cyclopropyl-imidazo[5,1-b]thiazol-3-yl)-[1-(4-ethoxy-phenyl)-1H-[1,2,3]triazol-4-yl]-methanol], the IC50 in assay [1] is 5.3 nM; in assay [2], more than 10200 nM.
On the same counts, the results for `CCc1sc2cncn2c1C(O)c1cn(-c2ccc(NC(C)=O)cc2)nn1` (racemic) [Example 110, rac-N-(4-{4-[(2-Ethyl-imidazo[5,1-b]thiazol-3-yl)-hydroxy-methyl]-[1,2,3]triazol-1-yl}-phenyl)-acetamide] are 13.1 nM and 4290 nM.
On the same counts, the results for `CCc1sc2cncn2c1C(O)c1cn(-c2ccc(OCCCO)c(Cl)c2)nn1` (racemic) [Example 320, rac-3-(2-Chloro-4-{4-[(2-ethyl-imidazo[5,1-b]thiazol-3-yl)-hydroxy-methyl]-[1,2,3]triazol-1-yl}-phenoxy)-propan-1-ol] are 2.1 nM and 7780 nM.
Taken in the same sequence, the figures for `O[C@@H](c1cnn(-c2ccccc2)c1)c1c(C2CC2)sc2cncn12` [Example 100a, (S)-(2-Cyclopropyl-imidazo[5,1-b]thiazol-3-yl)-(1-phenyl-1H-pyrazol-4-yl)-methanol] were 17.5 nM and 2450 nM.
As for `COc1ncc(-n2cc(C(O)c3c(C4CC4)sc4cncn34)nn2)c(OC)n1` (racemic) [Example 84, rac-(2-Cyclopropyl-imidazo[5,1-b]thiazol-3-yl)-[1-(2,4-dimethoxy-pyrimidin-5-yl)-1H-[1,2,3]triazol-4-yl]-methanol], the IC50 in assay [1] is 81.7 nM; in assay [2], more than 10200 nM.
On the same counts, the results for `OCc1ccc(-n2cc(C(O)c3c(C4CC4)sc4cncn34)nn2)cc1` (racemic) [Example 310, rac-(2-Cyclopropyl-imidazo[5,1-b]thiazol-3-yl)-[1-(4-hydroxymethyl-phenyl)-1H-[1,2,3]triazol-4-yl]-methanol] are 50.1 nM and more than 10200 nM.
On the same counts, the results for `CC(C)(O)CCOc1ccc(-n2cc(C(O)c3c([C@@H]4C[C@@H]4F)sc4cncn34)nn2)cc1Cl` (relative stereo) [Example 309, 4-[2-Chloro-4-(4-{[2-(cis-2-fluoro-cyclopropyl)-imidazo[5,1-b]thiazol-3-yl]-hydroxy-methyl}-[1,2,3]triazol-1-yl)-phenoxy]-2-methyl-butan-2-ol] are 17 nM and more than 10200 nM.
